Assay results reported in patent US20110306636A1, “OXAZOLE PYRIDINE DERIVATIVES USEFUL AS S1P1 RECEPTOR AGONISTS” (Merck Serono SA, priority 2009, published 2011).
Where a name gives a salt, the structure may show the parent alone. Read-outs that look alike come from different tables or passages of the source.

Legend:
S1P1 [1] = target: T1, S1P1 (Homo sapiens, UniProt P21453); experiment: Receptor binding assay, [33P]sphingosine 1-phosphate competition, S1P1
Summary of the method: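 SPA competition binding on CHO-cell membranes with 30 pM (S1P1) or 15 pM (S1P3) [33P]S1P in 50 mM HEPES pH 7.5, 5 mM MgCl2, 100 mM NaCl, 0.4% fatty acid-free BSA, 60 min at RT. Percent inhibition normalised to total binding and to non-specific binding (1000-fold unlabelled S1P), triplicates averaged.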

S1P3 [2] = target: T2, S1P3 (Homo sapiens, UniProt Q99500); experiment: 35S-GTPγS binding assay, S1P3 membranes; format: biochemical; conditions: membranes from CHO cells expressing S1P3; read-out: S1P3/GTPG EC50
T2 sequence (Q99500 whole entry, species assumed): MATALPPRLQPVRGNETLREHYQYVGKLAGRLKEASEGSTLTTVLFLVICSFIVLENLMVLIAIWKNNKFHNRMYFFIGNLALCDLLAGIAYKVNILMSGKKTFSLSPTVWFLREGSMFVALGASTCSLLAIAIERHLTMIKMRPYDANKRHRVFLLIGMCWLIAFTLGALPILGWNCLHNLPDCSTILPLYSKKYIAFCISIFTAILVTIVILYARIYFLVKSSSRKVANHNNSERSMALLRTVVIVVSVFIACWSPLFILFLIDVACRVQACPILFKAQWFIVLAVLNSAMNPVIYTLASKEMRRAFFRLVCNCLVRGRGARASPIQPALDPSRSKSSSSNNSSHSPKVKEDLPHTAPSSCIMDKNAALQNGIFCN
Experimental: (§1) Membranes Preparation: Membranes were prepared from CHO cells expressing S1P1 or S1P3 for use in ligand and 35S-GTPγS binding studies. Cells were suspended in 50 mM TRIS, pH 7.4, 2 mM EDTA, 250 mM Sucrose (buffer A) and 1× Complete protease inhibitor cocktail (Roche), and disrupted at 4° C. by N2 decompression using a cell disruption bomb (Parr Instrument). Following centrifugation at 1000 RPM for 10 min at 4° C., the supernatant was diluted (2×) in buffer A and centrifuged again at 19000 RPM for 75 min at 4° C. The pellet was then suspended in 10 mM HEPES, pH 7.4, 1 mM EDTA, 250 mM Sucrose (Buffer B), and 1× Complete EDTA-free protease inhibitor cocktail and homogenized using a potter. Membranes were flash frozen in liquid N2 and stored at −80° C.
(§2) Measurements of 35S-GTPγS Binding: Membranes (1 to 10 μg protein) prepared as described above, were incubated in 96-well Scintiplates (PerkinElmer) with test compounds diluted in DMSO, in 140 μl of 20 mM HEPES, pH 7.4, 10 mM MgCl2, 2 μg/well Saponin, 0.2% fatty acid free BSA (Assay buffer), 125 mM NaCl and 1.5 μM GDP. The assay was initiated with the addition of 60 μl of 1.5 nM [35S]-GTPγS (1100 Ci/mmol; GE Healthcare) in assay buffer. After 60 min incubation at 30° C. on a shaker, plates were centrifuged for 10 min at 2000 RPM. Supernatant was discarded and membrane bound radioactivity was measured on a PerkinElmer 1450 MicroBeta counter. Triplicate samples were averaged and expressed as % response relative to S1P activation in absence of compound (n=2).

S1P1 [3] = target: T1, S1P1; experiment: 35S-GTPγS binding assay, S1P1 membranes; format: biochemical; conditions: membranes from CHO cells expressing S1P1; read-out: S1P1/GTPG EC50
Experimental: as §1, §2
The “potency” or the “activity” of the compounds is determined by the EC50 values as evaluated in the above described 35S-GTPγS binding assay.

S1P3 [4] = target: T2, S1P3; experiment: Receptor binding assay, [33P]sphingosine 1-phosphate competition, S1P3
Experimental: as §1
Receptor binding assay: [33P]sphingosine 1-phosphate (3000 Ci/mmol; American Radiolabeled Chemicals, Inc.) was added to test compounds in 20% DMSO by competition. Membranes and WGA SPA beads (GE Healthcare) were added to give a final volume of 100 μl in 96-well plates or 50 μl in 384-well plates with assay concentrations of 30 pM or 15 pM [33P]sphingosine 1-phosphate (respectively for S1P1 or S1P3), 50 mM HEPES, pH 7.5, 5 mM MgCl2, 100 mM NaCl, 0.4% fatty acid-free BSA, 1-5 μg/well of proteins in 96-well plates vs 0.6-1 μg/well of proteins in 384-well plates and 100 μg/well of WGA SPA beads in 96-well plates vs 75 μg/well of WGA SPA beads in 384-well plates. Binding was performed for 60 min at RT on a shaker and bound radioactivity was measured on a PerkinElmer 1450 MicroBeta counter. Triplicate samples were averaged and normalized as purcentage of inhibition relative to total binding (only DMSO in well) and non specific binding (1000-fold excess of unlabeled S1P). Binding data were analyzed using the GraphPad Prism program or Genedata software.

[5] = target: T3, human S1P1 Receptor fused to the green fluorescent protein (EGFP) (Homo sapiens, UniProt P21453); experiment: Internalization of S1P1 in S1P1-U2OS cells by cell imaging analysis; format: cell-based; conditions: 1 hour incubation, 384-well
T3 construct: host or cells: U2OS (human bone osteosarcoma epithelial cells), CMV promoter, geneticin selection
T3 sequence (P21453 with tags, fused parts or gaps): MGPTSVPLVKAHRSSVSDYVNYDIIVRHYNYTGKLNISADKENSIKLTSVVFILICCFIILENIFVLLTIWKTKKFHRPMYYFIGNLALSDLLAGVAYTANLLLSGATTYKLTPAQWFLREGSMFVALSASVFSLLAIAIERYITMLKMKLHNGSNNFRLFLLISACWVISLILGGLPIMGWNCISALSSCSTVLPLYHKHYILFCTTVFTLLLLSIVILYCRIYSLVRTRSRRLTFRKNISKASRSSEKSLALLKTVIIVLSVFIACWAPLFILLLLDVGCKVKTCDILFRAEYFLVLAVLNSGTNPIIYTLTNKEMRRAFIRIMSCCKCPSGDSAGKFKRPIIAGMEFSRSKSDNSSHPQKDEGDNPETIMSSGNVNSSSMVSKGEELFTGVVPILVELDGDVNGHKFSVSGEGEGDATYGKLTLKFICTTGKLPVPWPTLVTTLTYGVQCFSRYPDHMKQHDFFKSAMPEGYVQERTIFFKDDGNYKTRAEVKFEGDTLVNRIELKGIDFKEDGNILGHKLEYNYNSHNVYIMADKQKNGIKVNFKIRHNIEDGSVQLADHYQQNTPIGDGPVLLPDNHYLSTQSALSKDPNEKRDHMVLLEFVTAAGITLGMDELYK
Summary of the method: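 Human U2OS osteosarcoma cells stably expressed human S1P1-EGFP. After 2 h serum starvation in 0.1% fatty-acid-free BSA medium, cells were treated with compounds for 1 h at 37 °C. Cells were then fixed and Hoechst-stained, and internalization was imaged as spots (receptor) per nucleus.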

[6] = 96 well-plate, read-out: S1P1 binding IC50 (M) (96 well-plate)
[7] = 384 well-plate, read-out: S1P1 binding IC50 (M) (384 well-plate)
[8] = 96 well-plate, read-out: S1P3 binding IC50 (M) (96 well-plate)

T1 sequence (P21453 whole entry, species assumed): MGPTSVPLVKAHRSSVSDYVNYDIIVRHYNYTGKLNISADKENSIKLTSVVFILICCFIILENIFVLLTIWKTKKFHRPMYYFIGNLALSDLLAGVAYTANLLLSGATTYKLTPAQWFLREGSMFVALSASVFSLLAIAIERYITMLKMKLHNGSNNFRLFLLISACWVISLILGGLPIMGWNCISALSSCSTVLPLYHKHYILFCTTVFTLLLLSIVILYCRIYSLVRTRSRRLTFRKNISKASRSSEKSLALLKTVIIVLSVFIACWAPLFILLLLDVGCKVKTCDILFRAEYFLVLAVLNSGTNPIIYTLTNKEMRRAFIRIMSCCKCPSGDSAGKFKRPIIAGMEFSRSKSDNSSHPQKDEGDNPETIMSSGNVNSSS

Row | Structure (SMILES) | IC50 (S1P1 [1]; [6]) | EC50 (S1P1 [3]) | further results
1 | COCc1cc(-c2nc(-c3ccc(NCCC(=O)O)nc3)no2)ccc1-c1ccccc1C [Example 2, N-(5-{5-[2-(methoxymethyl)-2′-methylbiphenyl-4-yl]-1,2,4-oxadiazol-3-yl}pyridin-2-yl)-beta-alanine, hydrochloride salt] | 4.83e-09 M | 21.1 nM | EC50 (S1P3 [2]): 1890 nM
2 | COCc1cc(-c2nc(-c3ccnc(NCC(=O)O)c3)no2)ccc1-c1ccccc1C [Example 11, N-(4-{5-[2-(methoxymethyl)-2′-methylbiphenyl-4-yl]-1,2,4-oxadiazol-3-yl}pyridin-2-yl)glycine, hydrochloride salt] |  | 22.2 nM | IC50 (S1P3 [4]; 384 well-plate, read-out: S1P3 binding IC50 (M) (384 well-plate)): 2.97e-06 M; IC50 (S1P1 [1]; [7]): 6.42e-08 M; EC50 [5]: 244 nM
3 | COCc1cc(-c2nc(-c3cnc(N)nc3)no2)ccc1-c1ccccc1C [Example 17, 5-{5-[2-(methoxymethyl)-2′-methylbiphenyl-4-yl]-1,2,4-oxadiazol-3-yl}pyrimidin-2-amine] |  | 152 nM | IC50 (S1P1 [1]; [7]): 2.92e-08 M; EC50 [5]: 152 nM
4 | Cc1ccccc1-c1ccc(-c2nc(-c3ccc(N)nc3)no2)cc1C(F)(F)F [Example 19, 5-{5-[2′-methyl-2-(trifluoromethyl)biphenyl-4-yl]-1,2,4-oxadiazol-3-yl}pyridin-2-amine] |  | 22.3 nM | 
5 | CC1CCCCN1c1ccc(-c2nc(-c3ccc(N)nc3)no2)cc1C(F)(F)F (stereo not shown) [Example 20, 5-{5-[4-(2-methylpiperidin-1-yl)-3-(trifluoromethyl)phenyl]-1,2,4-oxadiazol-3-yl}pyridin-2-amine] | 1.03e-08 M | 14.7 nM | 
6 | COCc1cc(-c2nc(-c3ccc(OC)nc3)no2)ccc1-c1ccccc1C [Example 23, 2-methoxy-5-{5-[2-(methoxymethyl)-2′-methylbiphenyl-4-yl]-1,2,4-oxadiazol-3-yl}pyridine] |  | 74.1 nM | 
7 | COCc1cc(-c2nc(-c3ccc(C(=O)O)nc3)no2)ccc1-c1ccccc1C [Example 25, 5-{5-[2-(methoxymethyl)-2′-methylbiphenyl-4-yl]-1,2,4-oxadiazol-3-yl}pyridine-2-carboxylic acid, hydrochloride salt] |  | 39.9 nM | 
8 | COCc1cc(-c2nc(-c3ccc(C(N)=O)nc3)no2)ccc1-c1ccccc1C [Example 26, 5-{5-[2-(methoxymethyl)-2′-methylbiphenyl-4-yl]-1,2,4-oxadiazol-3-yl}pyridine-2-carboxamide] |  | 45.2 nM | 
9 | CNc1ccc(-c2noc(-c3ccc(-c4ccccc4C)c(COC)c3)n2)cn1 [Example 29, 5-{5-[2-(methoxymethyl)-2′-methylbiphenyl-4-yl]-1,2,4-oxadiazol-3-yl}-N-methylpyridin-2-amine] |  | 43.8 nM | 
10 | COCc1cc(-c2nc(-c3ccc(N(C)C)nc3)no2)ccc1-c1ccccc1C [Example 30, 5-{5-[2-(methoxymethyl)-2′-methylbiphenyl-4-yl]-1,2,4-oxadiazol-3-yl}-N,N-dimethylpyridin-2-amine] |  | 688 nM | 
11 | COCc1cc(-c2nc(-c3ccc(N4CCCC4)nc3)no2)ccc1-c1ccccc1C [Example 31, 5-{5-[2-(methoxymethyl)-2′-methylbiphenyl-4-yl]-1,2,4-oxadiazol-3-yl}-2-pyrrolidin-1-ylpyridine] |  | 873 nM | 
12 | COCCNc1ncc(-c2noc(-c3ccc(-c4ccccc4C)c(COC)c3)n2)cc1Cl [Example 34, 3-chloro-N-(2-methoxyethyl)-5-{5-[2-(methoxymethyl)-2′-methylbiphenyl-4-yl]-1,2,4-oxadiazol-3-yl}pyridin-2-amine] | 5.26e-09 M | 11.8 nM | 
13 | COCc1cc(-c2nc(-c3cnc(NCCC(=O)OC(C)(C)C)c(Cl)c3)no2)ccc1-c1ccccc1C [Example 35, tert-butyl N-(3-chloro-5-{5-[2-(methoxymethyl)-2′-methylbiphenyl-4-yl]-1,2,4-oxadiazol-3-yl}pyridin-2-yl)-beta-alaninate] |  | 9.45 nM | 
14 | COCc1cc(-c2nc(-c3cnc(NCC(=O)O)c(Cl)c3)no2)ccc1-c1ccccc1C [Example 38, N-(3-chloro-5-{5-[2-(methoxymethyl)-2′-methylbiphenyl-4-yl]-1,2,4-oxadiazol-3-yl}pyridin-2-yl)glycine, hydrochloride salt] |  | 29.1 nM | 
15 | CC1CCCCN1c1ccc(-c2nc(-c3cnc(N)c(Cl)c3)no2)cc1C(F)(F)F (stereo not shown) [Example 39, 3-chloro-5-{5-[4-(2-methylpiperidin-1-yl)-3-(trifluoromethyl)phenyl]-1,2,4-oxadiazol-3-yl}pyridin-2-amine] |  | 32.6 nM | 

Compounds with a lower EC50 (S1P1 [3]), results first:

Row | IC50 (S1P1 [1]; [6]) | EC50 (S1P1 [3]) | Structure (SMILES) | further results
16 | 9.09e-09 M | 5.12 nM | COCc1cc(-c2nc(-c3ccnc(NCCC(=O)O)c3)no2)ccc1-c1ccccc1C [Example 7, N-(4-{5-[2-(methoxymethyl)-2′-methylbiphenyl-4-yl]-1,2,4-oxadiazol-3-yl}pyridin-2-yl)-beta-alanine, hydrochloride salt] | EC50 (S1P3 [2]): 118 nM
17 | 4.29e-09 M | 1.77 nM | COCc1cc(-c2nc(-c3ccc(N)nc3)no2)ccc1N1CCCCC1C (stereo not shown) [Example 9, 5-{5-[3-(methoxymethyl)-4-(2-methylpiperidin-1-yl)phenyl]-1,2,4-oxadiazol-3-yl}pyridin-2-amine] | EC50 (S1P3 [2]): 2620 nM
18 | 8.84e-09 M | 1.63 nM | CCc1ccccc1-c1ccc(-c2nc(-c3ccc(N)nc3)no2)cc1COC [Example 12, 5-{5-[2′-ethyl-2-(methoxymethyl)biphenyl-4-yl]-1,2,4-oxadiazol-3-yl}pyridin-2-amine, hydrochloride salt] | 
19 | 4.33e-09 M | 4.87 nM | COCc1cc(-c2nc(-c3cnc(N)c(C)c3)no2)ccc1-c1ccccc1C [Example 18, 5-{5-[2-(methoxymethyl)-2′-methylbiphenyl-4-yl]-1,2,4-oxadiazol-3-yl}-3-methylpyridin-2-amine, hydrochloride salt] | IC50 (S1P3 [4]; [8]): 2.21e-05 M; IC50 (S1P1 [1]; [7]): 1.52e-08 M; EC50 [5]: 49.4 nM
20 | 4.76e-08 M | 3.97 nM | COCc1cc(-c2nc(-c3ccc(O)nc3)no2)ccc1-c1ccccc1C [Example 21, 5-{5-[2-(methoxymethyl)-2′-methylbiphenyl-4-yl]-1,2,4-oxadiazol-3-yl}pyridin-2-ol] | EC50 (S1P3 [2]): 422 nM
21 | 4.54e-09 M | 5.25 nM | COCc1cc(-c2nc(-c3ccc(NCCO)nc3)no2)ccc1-c1ccccc1C [Example 28, 2-[(5-{5-[2-(methoxymethyl)-2′-methylbiphenyl-4-yl]-1,2,4-oxadiazol-3-yl}pyridin-2-yl)amino]ethanol] | 
22 | 1.39e-09 M | 2.98 nM | COCc1cc(-c2nc(-c3ccc(N)nc3)no2)ccc1-c1ccccc1Cl [Example 32, 5-{5-[2′-chloro-2-(methoxymethyl)biphenyl-4-yl]-1,2,4-oxadiazol-3-yl}pyridin-2-amine] | IC50 (S1P3 [4]; [8]): 9.4e-06 M; IC50 (S1P1 [1]; [7]): 2.12e-08 M; EC50 [5]: 38.8 nM
23 | 5.37e-08 M | 7.39 nM | COCc1cc(-c2nc(-c3ccc(N)nc3)no2)ccc1N1CCCC1C (stereo not shown) [Example 33, 5-{5-[3-(methoxymethyl)-4-(2-methylpyrrolidin-1-yl)phenyl]-1,2,4-oxadiazol-3-yl}pyridin-2-amine] | 
